Data as given in US20130204033A1, “ANTIPROLIFERATIVE COMPOUNDS, CONJUGATES THEREOF, METHODS THEREFOR, AND USES THEREOF” (Medarex, Inc., priority 2009, published 2013).
Read-outs that look alike come from different tables or passages of the source.

Tests used:
Assay type in all cases: cell-based, human
Details in all cases: Homo sapiens
SW-620 = experiment: ATP luminescence proliferation assay, SW-620
Procedure: (§1) This example generally describes the procedures used to assay the antiproliferative activity of compounds of this invention or their conjugates. Human tumor cell lines were obtained from the American Type Culture Collection (ATCC), P.O. Box 1549, Manassas, Va. 20108, USA, and cultured according to instruction from the ATCC. Cells were seeded at 1.0×10^3 or 1.0×10^4 cells/well in 96-well plates for 3 h for ATP assays or ^3H thymidine assays, respectively. 1:3 serial dilutions of free (unconjugated) compounds or their conjugates were added to the wells. Plates were allowed to incubate for 24 to 72 h. The ^3H thymidine plates were pulsed with 1.0 μCi of ^3H-thymidine per well for the last 24 hours of the total incubation period, harvested, and read on a Top Count Scintillation Counter (Packard Instruments, Meriden, Conn.). ATP levels in the ATP plates were measured using the […]-GLO® Luminescent Cell Viability kit following the manufacturer's manual and read on a GLOMAX® 20/20 luminometer (both from Promega, Madison, Wis., USA). The EC50 values—the concentration at which an agent inhibits or reduces cell proliferation by 50% —were determined using PRISM™ software, version 4.0 (GraphPad Software, La Jolla, Calif., USA).
(§2) Using the ^3H thymidine or the ATP luminescence assay, or both, the activities of compounds of this invention were assayed against the following cancer cell lines: HCT-15 (colorectal cancer, multi-drug resistant (MDR)); Hep3B (liver cancer); LNCaP (prostate cancer, androgen receptor positive (AR^+)); MDA-MB-231 (breast cancer, estrogen receptor, progesterone receptor, and Her2 negative (triple negative)); A2058 (melanoma); U-87 MG (glioblastoma); NCI-H460 (NSCLC); A549 (NSCLC); HPAC (pancreatic cancer, primary); PC3 (prostate cancer, AR); BT474 (breast cancer, Her2 highly positive (Her2hi)); SKOV3 (ovarian cancer, Her2hi); 786-O (renal cancer); UO-31 (renal cancer, MDR); NCI-H740 (SCLC); DMS53 (SCLC); SK-BR3 (breast cancer, Her2hi); ZR-75 (breast cancer, estrogen receptor positive); OVCAR3 (ovarian cancer); HL-60 (APL); OVCAR8/Adr (ovarian cancer, MDR); CEM-Cl (ALL); Nomo-1 (AML); RPMI-8226 (MM)); Raji (lymphoma); SW-480 (colorectal cancer, metastatic); SW-620 (colorectal cancer); and H226 (lung cancer). (Not all compounds were assayed against all cell lines.)
(§3) Table 3 provides the data for the ATP luminescence proliferation assays, with an incubation period of 48, 72, or 96 h, as noted.

A549 = experiment: 3H thymidine proliferation assay, A549
Procedure, shortened: (§4)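 Cells seeded at 1.0×10^4 cells/well for 3 h, then exposed to 1:3 serial dilutions of free compounds or conjugates for 72 h. 1.0 μCi ^3H-thymidine per well was added for the last 24 h, and incorporation was read by scintillation counting. EC50 is the concentration reducing proliferation by 50%.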

PC3 = experiment: 3H thymidine proliferation assay, PC3
Procedure, shortened: as §4

HCT-15 = experiment: 3H thymidine proliferation assay, HCT-15
Procedure, shortened: as §4

HL-60 = experiment: ATP luminescence proliferation assay, HL-60
Procedure, shortened: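 Read-out: luminescent ATP cell viability after 48, 72 or 96 h incubation, as noted, with 1:3 serial dilutions of unconjugated compounds or their conjugates. Plating was 1.0×10^3 cells/well, 3 h before dosing. EC50 = concentration giving 50% inhibition of proliferation.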

BT474 = experiment: ATP luminescence proliferation assay, BT474
Procedure: as §1, §2, §3

SW-480 = experiment: ATP luminescence proliferation assay, SW-480
Procedure: as §1, §2, §3

Hep3B = experiment: ATP luminescence proliferation assay, Hep3B
Procedure: as §1, §2, §3

RPMI-8226 = experiment: ATP luminescence proliferation assay, RPMI-8226
Procedure: as §1, §2, §3

Nomo-1 = experiment: ATP luminescence proliferation assay, Nomo-1
Procedure: as §1, §2, §3

OVCAR8 = experiment: 3H thymidine proliferation assay, OVCAR8
Procedure, shortened: as §4

A2058 = experiment: ATP luminescence proliferation assay, A2058
Procedure: as §1, §2, §3

DMS53 = experiment: 3H thymidine proliferation assay, DMS53
Procedure, shortened: as §4

H740 = experiment: 3H thymidine proliferation assay, H740
Procedure, shortened: as §4

CEM-Cl = experiment: ATP luminescence proliferation assay, CEM-C1
Procedure: as §1, §2, §3

NCI-H460 [1] = experiment: 3H thymidine proliferation assay, NCI-H460
Procedure, shortened: as §4

NCI-H460 [2] = experiment: ATP luminescence proliferation assay, NCI-H460
Procedure: as §1, §2, §3

OVCAR3 = experiment: ATP luminescence proliferation assay, OVCAR3
Procedure, shortened: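 Cells seeded at 1.0×10^3 cells/well for 3 h, then exposed to 1:3 serial dilutions of free compounds or conjugates for 48, 72 or 96 h as noted. ATP measured by Glo luminescent viability kit; EC50 taken as concentration reducing proliferation by 50%.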

[3] = ATP luminescence, SW-620, 96 h incubation, read-out: EC50 SW-620 (96 h)
[4] = A549, 3H thymidine method, 72 h incubation, read-out: EC50, A549
[5] = PC-3, 3H thymidine method, 72 h incubation, read-out: EC50, PC3
[6] = HCT-15, 3H thymidine method, 72 h incubation, read-out: EC50, HCT-15
[7] = ATP luminescence, HL-60, 72 h incubation, read-out: EC50 HL-60 (72 h)
[8] = BT-474, ATP luminescence, BT474, 72 h incubation, read-out: EC50 BT474 (72 h)
[9] = ATP luminescence, SW480, 96 h incubation, read-out: EC50 SW480 (96 h)
[10] = ATP luminescence, 48 h incubation, read-out: EC50 Hep3B (48 h)
[11] = ATP luminescence, RPMI-8226, 72 h incubation, read-out: EC50 RPMI-8226 (72 h)
[12] = ATP luminescence, Nomo-1, 72 h incubation, read-out: EC50 Nomo-1 (72 h)
[13] = OVCAR-8, 3H thymidine method, 72 h incubation, read-out: EC50, OVCAR8
[14] = ATP luminescence, A2058, 72 h incubation, read-out: EC50 A2058 (72 h)
[15] = DMS-53, 3H thymidine method, 72 h incubation, read-out: EC50, DMS53
[16] = 3H thymidine method, 72 h incubation, read-out: EC50, H740
[17] = ATP luminescence, CEM-C1, 72 h incubation, read-out: EC50 CEM-C1 (72 h)
[18] = NCI-H460, 3H thymidine method, 72 h incubation, read-out: EC50, NCI-H460
[19] = ATP luminescence, NCI-H460, 72 h incubation, read-out: EC50 NCI-H460 (72 h)
[20] = OVCAR-3, ATP luminescence, OVCAR3, 48 h incubation, read-out: EC50 OVCAR3 (48 h)
[21] = SW-620, 96 h, read-out: EC50 SW-620 (96 h), ATP luminescence, SW-620, 96 h incubation
[22] = A549, read-out: EC50, A549, 3H thymidine method, 72 h incubation
[23] = PC-3, read-out: EC50, PC3, 3H thymidine method, 72 h incubation
[24] = HCT-15, read-out: EC50, HCT-15, 3H thymidine method, 72 h incubation
[25] = BT-474, 48 h, read-out: EC50 BT474 (48 h), ATP luminescence, BT474, 48 h incubation
[26] = SW480, 96 h, read-out: EC50 SW480 (96 h), ATP luminescence, SW480, 96 h incubation
[27] = 48 h, read-out: EC50 Hep3B (48 h), ATP luminescence, Hep3B, 48 h incubation
[28] = NOMO-1, 48 h, read-out: EC50 Nomo-1 (48 h), ATP luminescence, Nomo-1, 48 h incubation
[29] = OVCAR-8, read-out: EC50, OVCAR8, 3H thymidine method, 72 h incubation
[30] = DMS-53, read-out: EC50, DMS53, 3H thymidine method, 72 h incubation
[31] = read-out: EC50, H740, 3H thymidine method, 72 h incubation
[32] = NCI-H460, read-out: EC50, NCI-H460, 3H thymidine method, 72 h incubation
[33] = NCI-H460, 72 h, read-out: EC50 NCI-H460 (72 h), ATP luminescence, NCI-H460, 72 h incubation

Row | Compound | EC50 (SW-620; [3]) [nM] | EC50 (A549; [4]) [nM] | EC50 (PC3; [5]) [nM] | EC50 (HCT-15; [6]) [nM] | EC50 (HL-60; [7]) [nM] | EC50 (BT474; [8]) [nM] | EC50 (SW-480; [9]) [nM] | EC50 (Hep3B; [10]) [nM] | EC50 (RPMI-8226; [11]) [nM] | EC50 (Nomo-1; [12]) [nM] | EC50 (OVCAR8; [13]) [nM] | EC50 (A2058; [14]) [nM] | EC50 (DMS53; [15]) [nM] | EC50 (H740; [16]) [nM] | EC50 (CEM-Cl; [17]) [nM] | EC50 (NCI-H460 [1]; [18]) [nM] | EC50 (NCI-H460 [2]; [19]) [nM] | EC50 (OVCAR3; [20]) [nM] | EC50 (SW-620; [21]) [nM] | EC50 (A549; [22]) [nM] | further results
1 | Nc1ccc(C(=O)Nc2ccc3[nH]c(C(=O)N4C[C@@H](CCl)c5c4cc(O)c4ccccc54)cc3c2)cc1 [CBI, reference compound] | 0.33 | 0.072 | 0.049 | 0.04 | 0.76 | 5.5 | 0.92 | 2.6 | 4.1 | 0.37 | 0.16 | 0.2 | 1.5 | 0.098 | 0.55 | 0.042 | 0.64 | 4.1 |  |  | 
2 | CC[C@H](C)[C@H](NC(=O)[C@H]1CCCCN1C)C(=O)N(C)[C@H](C[C@@H](OC)c1nc(C(=O)N[C@H](CCC(=O)OC)Cc2ccccc2)cs1)C(C)C [Compound 26] |  |  |  |  |  |  |  |  |  |  |  |  |  |  |  |  |  |  | 48 | 18 | EC50 (PC3; [23]): 16 nM; EC50 (HCT-15; [24]): 31 nM; EC50 (HL-60; HL-60, 72 h, read-out: EC50 HL-60 (72 h), ATP luminescence, HL-60, 72 h incubation): 27 nM; EC50 (BT474; [25]): 19 nM; EC50 (SW-480; [26]): 67 nM; EC50 (Hep3B; [27]): 100 nM; EC50 (RPMI-8226; RPMI-8226, 48 h, read-out: EC50 RPMI-8226 (48 h), ATP luminescence, RPMI-8226, 48 h incubation): 45 nM; EC50 (Nomo-1; [28]): 3.9 nM; EC50 (OVCAR8; [29]): 201 nM; EC50 (A2058; A2058, 48 h, read-out: EC50 A2058 (48 h), ATP luminescence, A2058, 48 h incubation): 93 nM; EC50 (DMS53; [30]): 99 nM; EC50 (H740; [31]): 3 nM; EC50 (CEM-Cl; CEM/C1, 48 h, read-out: EC50 CEM-C1 (48 h), ATP luminescence, CEM-C1, 48 h incubation): 61 nM; EC50 (NCI-H460 [1]; [32]): 18 nM; EC50 (NCI-H460 [2]; [33]): 90 nM; EC50 (OVCAR3; OVCAR-3, 72 h, read-out: EC50 OVCAR3 (72 h), ATP luminescence, OVCAR3, 72 h incubation): 49 nM
3 | CC[C@H](C)[C@H](NC(=O)[C@H]1CCCCN1C)C(=O)N(C)[C@H](C[C@@H](OC)c1nc(C(=O)N[C@H](CC(=O)OC)Cc2ccccc2)cs1)C(C)C [Compound 25] |  |  |  |  |  |  |  |  |  |  |  |  |  |  |  |  |  |  | 193 | 270 | EC50 (PC3; [23]): 319 nM; EC50 (HCT-15; [24]): 280 nM; EC50 (HL-60; HL-60, 48 h, read-out: EC50 HL-60 (48 h), ATP luminescence, HL-60, 48 h incubation): 224 nM; EC50 (BT474; [25]): 166 nM; EC50 (SW-480; [26]): 261 nM; EC50 (Hep3B; [27]): 246 nM; EC50 (RPMI-8226; RPMI-8226, 72 h, read-out: EC50 RPMI-8226 (72 h), ATP luminescence, RPMI-8226, 72 h incubation): 235 nM; EC50 (Nomo-1; [28]): 83 nM; EC50 (OVCAR8; [29]): 946 nM; EC50 (A2058; A2058, 72 h, read-out: EC50 A2058 (72 h), ATP luminescence, A2058, 72 h incubation): 212 nM; EC50 (DMS53; [30]): 515 nM; EC50 (H740; [31]): 347 nM; EC50 (CEM-Cl; CEM/C1, 72 h, read-out: EC50 CEM-C1 (72 h), ATP luminescence, CEM-C1, 72 h incubation): 176 nM; EC50 (NCI-H460 [1]; [32]): 306 nM; EC50 (NCI-H460 [2]; [33]): 177 nM; EC50 (OVCAR3; OVCAR-3, 48 h, read-out: EC50 OVCAR3 (48 h), ATP luminescence, OVCAR3, 48 h incubation): > 3000 nM
4 | COc1cccc2c1C(=O)c1c(O)c3c(c(O)c1C2=O)C[C@@](O)(C(=O)CO)C[C@@H]3O[C@H]1C[C@H](N)[C@H](O)[C@H](C)O1 [Dox, doxorubicin, reference compound] | 145 | 128 | 276 | 149 | 147 | 388 | 215 | 443 | 345 | 338 | 2040 | 101 | 979 | 255 | 161 | 101 | 92 | 632 |  |  | 
